Results: US20240262842A1, “SMALL MOLECULE INHIBITORS OF KRAS G12C MUTANT” (Merck Sharp & Dohme LLC, priority 2021, published 2024)
Read-outs that look alike come from different tables or passages of the source.

What was measured:
[1] = target: T1, interaction between GMPPNP-bound recombinant K-Ras4B G12C mutant protein and cRAF RAS-binding domain (cRAF-RBD) (Homo sapiens, UniProt P01116, G12C); assay: Inhibitory activity on interaction between KRAS G12C and cRAF (Alpha technology); conditions: Table 2
T1 construct: His-tag (N)
T1 sequence (P01116 with tags, fused parts or gaps isoform P01116-2 G12C): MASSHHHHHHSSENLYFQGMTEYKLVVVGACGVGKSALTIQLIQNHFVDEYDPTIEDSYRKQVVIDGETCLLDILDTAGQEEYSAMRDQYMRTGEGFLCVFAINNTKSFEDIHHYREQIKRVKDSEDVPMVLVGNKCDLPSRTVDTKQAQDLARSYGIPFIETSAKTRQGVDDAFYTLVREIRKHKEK
Procedure, shortened: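 Alpha signal measured 1.5 h after adding cRAF-RBD (aa 50-132) and detection reagents to GMPPNP-bound KRAS G12C (aa 1-169) pretreated 1 h at 25° C with compound (pH 7.5 buffer). 0% inhibition = DMSO, 100% = GDP-loaded KRAS; IC50 by curve fit.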

[2] = tested on: MIA PaCa-2 cells; assay: Growth inhibition activity on KRAS-G12C mutant cell line (CellTiter-Glo 3D); format: cell-based, human; conditions: MIA PaCa-2, 3-day culture with compound, Table 3
Procedure, shortened: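 IC50 (nM) derived from inhibition of luminescence (CellTiter-Glo 3D) relative to compound-free wells. Cells were seeded in U-bottom plates, grown 1 day, then exposed to compound for 3 days at 37 °C with 0.2% final DMSO.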

[3] = IC50, GMPPNP-bound KRAS G12C incubated with compound 25° C. 1 hour
[4] = GMPPNP-bound KRAS G12C incubated with compound 25° C. 1 hour, read-out: IC50

Row | Structure (SMILES) | IC50 [1, 3] | IC50 ([2]; Homo sapiens, MIA PaCa-2, 72 h) | IC50 [1, 4] | IC50 [2]
1 | CO[C@H]1CC[C@H](NC/C=C/C(=O)Nc2c(F)cc(C(=O)c3cn4c5c(cccc35)-c3c(C)cc5c(nc(C)n5C)c3OC[C@@H]4C)cc2F)CC1 [Example 18, (E)-N-(2,6-difluoro-4-((S)-6,8,9,13-tetramethyl-12,13-dihydro-8H-imidazo[4″,5″:3′,4]benzo[1′,2′:7,8][1,4]oxazocino[6,5,4-hi]indole-2-carbonyl)phenyl)-4-(((1,4r)-4-methoxycyclohexyl)amino)but-2-enamide] | 19 nM | 21 nM | – | –
2 | CO[C@H]1CC[C@H](NC/C=C/C(=O)Nc2c(F)cc(C(=O)c3cn4c5c(cccc35)-c3c(C)cc5c(nc(C)n5C)c3O[C@H](C)C4)cc2F)CC1 [Example 19, (E)-N-(2,6-difluoro-4-((R)-6,8,9,12-tetramethy 1-12,13-dihydro-8H-imidazo[4″,5″:3′,4′]benzo[1′,2′:7,8][1,4]oxazocino[6,5,4-hi]indole-2-carbonyl)phenyl)-4-(((1,4r)-4-methoxycyclohexyl)amino)but-2-enamide] | > 6700 nM | 3300 nM | – | –
3 | CO[C@H]1CC[C@H](NC/C=C/C(=O)Nc2c(F)cc(C(=O)c3cn4c5c(cccc35)-c3c(C)cc5c(nc(C)n5C)c3OC[C@@H](C)C4)cc2F)CC1 [Example 22, (E)-N-(2,6-difluoro-4-((S)-6,8,9,13-tetramethyl-13,14-dihydro-8H, 12H-imidazo[4″,5″:3′,4′]benzo[1′,248,9][1,5]oxazonino[7,6,5-hi]indole-2-carbonyl)phenyl)-4-(((1,4r)-4-methoxycyclohexyl)amino)but-2-enamide] | 100 nM | 100 nM | – | –
4 | CO[C@H]1CC[C@H](NC/C=C/C(=O)Nc2c(F)cc(C(=O)c3c(C)n4c5c(cccc35)-c3c(C(F)(F)F)cc5c(nc(C)n5C)c3OCC4)cc2F)CC1 [Example 25, (E)-N-(2,6-difluoro-4-(1,8,9-trimethyl-6-(trifluoromethyl)-12, 13-dihydro-8H-imidazo[4″,5″:3′,4′]benzo[1′,2′:7,8][1,4]oxazocino[6,5,4-hi]indole-2-carbonyl)phenyl)-4-(((1,4r)-4-methoxycyclohexyl)amino)but-2-enamide] | 39 nM | 24 nM | – | –
5 | CO[C@H]1CC[C@H](NC/C=C/C(=O)Nc2c(F)cc(C(=O)c3cn4c5c(cccc35)-c3c(C)cc5c(nc(C)n5C)c3OCC(F)(F)C4)cc2F)CC1 [Example 26, (E)-N-(4-(13,13-difluoro-6,8,9-trimethyl-13,14-dihydro-8H,12H-imidazo[4″,5″:3′,4′]benzol[1′,2′:8,9][1,5]oxazonino[7,6,5-hi]indole-2-carbonyl)-2,6-difluorophenyl)-4-(((1r,4r)-4-methoxycyclohexyl)amino)but-2-enamide] | 100 nM | 130 nM | – | –
6 | CO[C@H]1CC[C@H](NC/C=C/C(=O)Nc2c(F)cc(C(=O)c3cn4c5c(cccc35)-c3c(C)cc5c(nc(C)n5C)c3CCC4)cc2F)CC1 [Example 27, (E)-N-(2,6-difluoro-4-(6,8,9-trimethyl-8,11,12,13-tetrahydroimidazo[4″,5″:3′,4′]benzo[1′,2′:4,5]azocino[3,2,1-hi]indole-2-carbonyl)phenyl)-4-(((1r,4r)-4-methoxycyclohexyl)amino)but-2-enamide] | 64 nM | 88 nM | – | –
7 | CO[C@H]1CC[C@H](NC/C=C/C(=O)Nc2c(F)cc(C(=O)c3cn4c5c(cccc35)-c3c(C(F)(F)F)cc5c(nc(C)n5C)c3CCC4)cc2F)CC1 [Example 28, (E)-N-(4-(8,9-dimethyl-6-(trifluoromethyl)-8,11,12,13-tetrahydroimidazo[4″,5″:3′,4′]benzo[1′,2:4,5]azocino[3,2,1-hi]indole-2-carbonyl)-2,6-difluorophenyl)-4-(((1r,4r)-4-methoxycyclohexyl)amino)but-2-enamide] | 53 nM | 17 nM | – | –
8 | CO[C@H]1CC[C@H](NC/C=C/C(=O)Nc2c(F)cc(C(=O)c3cn4c5c(cccc35)-c3c(C(F)(F)F)cc5c(nc(C)n5C)c3CCCC4)cc2F)CC1 [Example 29, (E)-N-(4-(8,9-dimethy 1-6-(trifluoromethyl)-11,12,13,14-tetrahydro-8H-imidazo[4″,5″:3′,4′]benzo[1′,2:4,5]azonino[3,2,1-hi]indole-2-carbonyl)-2,6-difluorophenyl)-4-(((1r,4r)-4-methoxycyclohexyl)amino)but-2-enamide] | 220 nM | 53 nM | – | –
9 | CO[C@H]1CC[C@H](NC/C=C/C(=O)Nc2c(F)cc(C(=O)c3cc4c5c(cccn35)-c3c(C)cc5c(nc(C)n5C)c3OCC4)cc2F)CC1 [Example 32, (E)-N-(2,6-difluoro-4-(7,9,10-trimethyl-13,14-dihydro-9H-imidazo[4″,5″:5′,6]benzo[1′,2′:2,3]oxocino[4,5,6-hi]indolizine-2-carbonyl)phenyl)-4-(((1,4r)-4-methoxycyclohexyl)amino)but-2-enamide] | – | 86 nM | 27 nM | –
10 | Cc1nc2c3c(c(C(F)(F)F)cc2n1C)-c1cccn2c(C(=O)c4cc(F)c(NC(=O)/C=C/CNC(C)(C)C)c(F)c4)cc(c12)CCO3 [Example 33] | – | 5 nM | 14 nM | –
11 | Cc1nc2c3c(c(C(F)(F)F)cc2n1C)-c1cccn2c(C(=O)c4cc(F)c(NC(=O)/C=C/CNC5CCOCC5)c(F)c4)cc(c12)CCO3 [Example 34] | – | 7 nM | 12 nM | –
12 | Cc1nc2c3c(c(C(F)(F)F)cc2n1C)-c1cccn2c(C(=O)c4cc(F)c(NC(=O)/C=C/CNC5(C)CC5)c(F)c4)cc(c12)CCO3 [Example 35] | – | 14 nM | 13 nM | –
13 | Cc1nc2c3c(c(C(F)(F)F)cc2n1C)-c1cccn2c(C(=O)c4cc(F)c(NC(=O)/C=C/CNC5CCP(C)(=O)CC5)c(F)c4)cc(c12)CCO3 (centres unmarked) [Example 36] | – | 150 nM | 13 nM | –
14 | CO[C@H]1CC[C@H](NC/C=C/C(=O)Nc2ccc(C(=O)c3cc4c5c(cccn35)-c3c(C(F)(F)F)cc5c(nc(C)n5C)c3OCC4)cc2)CC1 [Example 37, (E)-N-(4-(9,10-dimethyl-7-(trifluoromethyl)-13,14-dihydro-9H-imidazo[4″,5″:5′,6′]benzo[1′,2′:2,3]oxocino[4,5,6-hi]indolizine-2-carbonyl)phenyl)-4-(((1,4r)-4-methoxycyclohexyl)amino)but-2-enamide] | – | 28 nM | 40 nM | –
15 | Cc1nc2c3c(c(C(F)(F)F)cc2n1C)-c1cccn2c(C(=O)c4cc(F)c(NC(=O)/C=C/CNC5(C)CCOCC5)c(F)c4)cc(c12)CCO3 [Example 39] | – | 12 nM | 8 nM | –
16 | Cc1nc2c3c(c(C(F)(F)F)cc2n1C)-c1cccn2c(C(=O)c4cc(F)c(NC(=O)/C=C/CNC5(C(=O)O)CCCCC5)c(F)c4)cc(c12)CCO3 [Example 40] | – | 1600 nM | 4700 nM | –
17 | Cc1nc2c3c(c(C(F)(F)F)cc2n1C)-c1cccn2c(C(=O)c4cc(F)c(NC(=O)/C=C/CNC5(C)CCOC5)c(F)c4)cc(c12)CCO3 (centres unmarked) [Example 41] | – | 4 nM | 10 nM | –
18 | CO[C@H]1CC[C@H](NC/C=C/C(=O)Nc2c(F)cc(C(=O)c3cc4c5c(cccn35)-c3c(C(F)(F)F)cc5c(nc(C)n5C)c3OC(C)C4)cc2F)CC1 (some centres unmarked) [Example 42, (E)-N-(2,6-difluoro-4-(9,10,13-trimethyl-7-(trifluoromethyl)-13,14-dihydro-9H-imidazo[4″,5″:5′,6′]benzo[1′,2′:2,3]oxocino[4,5,6-hi]indolizine-2-carbonyl)phenyl)-4-(((1r,4r)-4-methoxycyclohexyl)amino)but-2-enamide] | – | 9 nM | 18 nM | –
19 | CO[C@H]1CC[C@H](NC/C=C/C(=O)Nc2c(F)cc(C(=O)c3cc4c5c(cccn35)-c3c(C(F)(F)F)cc5c(nc(C)n5C)c3OC(C)C4)cc2F)CC1 (some centres unmarked) [Example 43, (E)-N-(2,6-difluoro-4-(9,10,13-trimethyl-7-(trifluoromethyl)-13,14-dihydro-9H-imidazo[4″,5″:5′,6′]benzo[1′,2′:2,3]oxocino[4,5,6-hi]indolizine-2-carbonyl)phenyl)-4-(((1r,4r)-4-methoxycyclohexyl)amino)but-2-enamide] | – | – | 17 nM | 14 nM
20 | CO[C@H]1CC[C@H](NC/C=C/C(=O)Nc2c(F)cc(C(=O)c3cn4c5c(cccc35)-c3c(C)cc5c(nc(C)n5C)c3N(C)CC4)cc2F)CC1 [Example 44] | 30 nM | 10 nM | – | –
21 | CO[C@H]1CC[C@H](NC/C=C/C(=O)Nc2c(F)cc(C(=O)c3cn4c5c(cccc35)-c3c(C(F)(F)F)cc5c(nc(C)n5C)c3N(C)CC4)cc2F)CC1 [Example 45, (E)-N-(2,6-difluoro-4-(8,9,11-trimethyl-6-(trifluoromethyl)-8,11,12,13-tetrahydroimidazo[4′ 5,6][1,4]diazocino[7,8,1-hi]indole-2-carbonyl)phenyl)-4-(((1,4r)-4-methoxycyclohexyl)amino)but-2-enamide] | 21 nM | 5 nM | – | –
22 | CO[C@H]1CC[C@H](NC/C=C/C(=O)Nc2c(F)cc(C(=O)c3nn4c5c(cccc35)-c3c(C(F)(F)F)cc5c(nc(C)n5C)c3OCC4)cc2F)CC1 [Example 46, (E)-N-(4-(8,9-dimethyl-6-(trifluoromethyl)-12,13-dihydro-8H-imidazo[4″,5″:3′4′]benzo[1′,2′:7,8][1,4]oxazocino[6,5,4-hi]indazole-2-carbonyl)-2,6-difluorophenyl)-4-(((1r,4r)-4-methoxycyclohexyl)amino)but-2-enamide] | – | 57 nM | 140 nM | –
